Source: ChEMBL document CHEMBL4265889, “Design and synthesis of tetrahydropyridopyrimidine based Toll-Like Receptor (TLR) 7/8 dual agonists” (Bioorg Med Chem Lett, 2018)

Assays:
Type in all cases: cell-based
[1] = target: T1, Toll-like receptor 7 (Homo sapiens) (UniProt Q9NYK1); experiment: Agonist activity at human TLR7 expressed in HEK293 cells after 6 hrs by NFkappaB-luciferase reporter gene assay
T1 sequence (whole entry): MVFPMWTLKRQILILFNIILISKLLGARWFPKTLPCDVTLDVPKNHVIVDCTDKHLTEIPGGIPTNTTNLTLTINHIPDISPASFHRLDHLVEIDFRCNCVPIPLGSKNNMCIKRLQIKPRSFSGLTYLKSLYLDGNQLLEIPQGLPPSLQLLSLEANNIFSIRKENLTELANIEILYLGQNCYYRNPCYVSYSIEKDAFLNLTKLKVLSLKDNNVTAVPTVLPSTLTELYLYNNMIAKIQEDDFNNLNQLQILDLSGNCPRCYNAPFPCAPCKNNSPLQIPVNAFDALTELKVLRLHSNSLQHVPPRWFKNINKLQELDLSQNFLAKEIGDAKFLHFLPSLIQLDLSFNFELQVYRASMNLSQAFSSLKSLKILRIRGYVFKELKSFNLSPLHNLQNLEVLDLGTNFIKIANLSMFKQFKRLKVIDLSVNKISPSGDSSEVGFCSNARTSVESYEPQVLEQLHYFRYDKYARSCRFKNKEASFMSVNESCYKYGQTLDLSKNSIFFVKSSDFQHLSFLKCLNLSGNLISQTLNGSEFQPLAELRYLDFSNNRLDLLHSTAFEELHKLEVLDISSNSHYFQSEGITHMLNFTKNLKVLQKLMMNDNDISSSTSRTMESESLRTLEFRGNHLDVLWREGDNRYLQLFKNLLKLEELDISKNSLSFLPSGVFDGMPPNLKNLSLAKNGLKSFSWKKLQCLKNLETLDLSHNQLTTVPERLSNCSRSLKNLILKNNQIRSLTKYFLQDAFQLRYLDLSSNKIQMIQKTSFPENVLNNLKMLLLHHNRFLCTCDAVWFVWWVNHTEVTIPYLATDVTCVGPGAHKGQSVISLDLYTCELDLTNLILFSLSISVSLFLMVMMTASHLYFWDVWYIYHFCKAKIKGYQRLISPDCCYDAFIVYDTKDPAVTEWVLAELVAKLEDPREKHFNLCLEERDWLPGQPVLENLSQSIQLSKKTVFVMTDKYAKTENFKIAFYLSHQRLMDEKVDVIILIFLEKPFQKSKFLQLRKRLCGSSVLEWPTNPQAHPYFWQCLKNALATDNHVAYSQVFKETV

[2] = target: T2, Toll-like receptor 8 (Homo sapiens) (UniProt Q9NR97); experiment: Agonist activity at human TLR8 expressed in HEK293 cells after 6 hrs by NFkappaB-luciferase reporter gene assay
T2 sequence (whole entry): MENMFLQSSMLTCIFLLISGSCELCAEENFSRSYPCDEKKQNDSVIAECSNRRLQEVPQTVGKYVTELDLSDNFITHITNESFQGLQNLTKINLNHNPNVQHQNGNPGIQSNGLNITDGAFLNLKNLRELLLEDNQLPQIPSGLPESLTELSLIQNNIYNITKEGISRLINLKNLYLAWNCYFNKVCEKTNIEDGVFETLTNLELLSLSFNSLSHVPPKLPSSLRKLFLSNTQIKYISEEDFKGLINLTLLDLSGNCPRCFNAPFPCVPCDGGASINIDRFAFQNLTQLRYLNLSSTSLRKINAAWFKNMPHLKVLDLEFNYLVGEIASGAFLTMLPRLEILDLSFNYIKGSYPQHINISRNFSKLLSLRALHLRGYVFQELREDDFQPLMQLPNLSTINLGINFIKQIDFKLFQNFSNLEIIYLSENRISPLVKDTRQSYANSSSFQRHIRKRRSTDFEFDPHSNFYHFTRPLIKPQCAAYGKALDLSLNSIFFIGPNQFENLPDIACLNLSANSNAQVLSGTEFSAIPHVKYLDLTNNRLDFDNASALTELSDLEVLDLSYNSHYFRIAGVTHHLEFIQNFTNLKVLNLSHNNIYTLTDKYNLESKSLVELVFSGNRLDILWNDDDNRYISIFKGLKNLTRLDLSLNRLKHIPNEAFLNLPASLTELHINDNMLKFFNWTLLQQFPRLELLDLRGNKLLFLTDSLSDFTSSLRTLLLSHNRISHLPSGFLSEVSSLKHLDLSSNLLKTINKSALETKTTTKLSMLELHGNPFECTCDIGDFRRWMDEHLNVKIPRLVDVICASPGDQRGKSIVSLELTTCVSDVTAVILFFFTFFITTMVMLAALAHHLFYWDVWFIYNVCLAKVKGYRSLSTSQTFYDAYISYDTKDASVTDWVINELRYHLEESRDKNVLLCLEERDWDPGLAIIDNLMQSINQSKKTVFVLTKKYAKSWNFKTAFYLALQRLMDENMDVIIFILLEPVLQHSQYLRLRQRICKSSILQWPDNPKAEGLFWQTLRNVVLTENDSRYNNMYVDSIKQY

[3] = Cytotoxicity against HEK293 cells transfected with the CMV-TLR7 construct assessed as reduction in cell viability after 6 hrs by ATPlite assay; conditions: human
[4] = target: T1, Toll-like receptor 7 (Homo sapiens); experiment: Agonist activity at TLR7 in human PBMC assessed as suppression of HCV replicon replication in human HuH7 luc/neo cells harboring RNA encoding bicistronic expression construct comprising wild type HCV type 1b NS3-NS5B regions exposed to conditioned media from compound treated PBMCs after 24 hrs by luciferase reporter gene assay

SMILES	MEC [1]	MEC [2]	CC50 at 6 h [3]	MEC [4]
CCCCNc1nc(N)nc2c1CN(Cc1ccc(OC)cc1)CC2	2.1 µM	0.08 µM	> 24 µM	0.17 µM
CCCCNc1nc(N)nc2c1CN(Cc1ccccc1Cl)CC2	1.5 µM	0.05 µM	> 24 µM	0.15 µM
CCCCNc1nc(N)nc2c1CN(C(=O)c1scnc1C)CC2	13 µM	5.6 µM	> 24 µM	2.23 µM
CCCCNc1nc(N)nc2c1CN(C(=O)CC)CC2	2.3 µM	0.4 µM	> 24 µM	0.53 µM
CCCCNc1nc(N)nc2c1CN(C(=O)c1ccccc1)CC2	1.5 µM	1.4 µM	> 24 µM	–
CCCCNc1nc(N)nc2c1CN(Cc1cccc3ccccc13)CC2	1.3 µM	0.43 µM	> 24 µM	0.43 µM
CCCCNc1nc(N)nc2c1CN(C(C)=O)CC2	4.9 µM	0.5 µM	> 24 µM	–
CCCCNc1nc(N)nc2c1CN(C(=O)c1cnc(N)s1)CC2	2.1 µM	4.4 µM	> 24 µM	0.38 µM
CCCCNc1nc(N)nc2c1CN(C(=O)c1cnc(C)cn1)CC2	11 µM	6.8 µM	> 24 µM	1.07 µM
CCCCNc1nc(N)nc2c1CN(CCc1ccccc1)CC2	1.8 µM	0.2 µM	> 24 µM	–
CCCCNc1nc(N)nc2c1CN(Cc1ccc(OC(F)(F)F)cc1)CC2	4.7 µM	0.24 µM	> 24 µM	0.52 µM
CCCCNc1nc(N)nc2c1CCNC2	8.9 µM	0.6 µM	> 24 µM	–
CCCCNc1nc(N)nc2c1CNCC2	> 25 µM	7.2 µM	> 24 µM	–
CCCCNc1nc(N)nc2c1CN(Cc1c(Cl)cccc1Cl)CC2	2.4 µM	0.14 µM	> 24 µM	0.19 µM
CCCCNc1nc(N)nc2c1CCN(CCc1ccccc1)C2	6.5 µM	0.2 µM	> 24 µM	–
CCCCNc1nc(N)nc2c1CN(Cc1ccncc1)CC2	5.2 µM	0.29 µM	> 24 µM	0.5 µM
CCCCNc1nc(N)nc2c1CN(C(=O)C(C)C)CC2	8.1 µM	1.6 µM	> 24 µM	1.8 µM
CCCCNc1nc(N)nc2c1CN(C(=O)c1csnn1)CC2	0.9 µM	0.1 µM	> 24 µM	0.15 µM

SMILES	MEC [1]	MEC [2]	CC50 at 6 h [3]	MEC [4]
CCCCNc1nc(N)nc2c1CN(S(C)(=O)=O)CC2	> 25 µM	9.9 µM	> 24 µM	–
CCCCNc1nc(N)nc2c1CN(Cc1cccnc1)CC2	3 µM	0.13 µM	> 24 µM	0.15 µM
CCCCNc1nc(N)nc2c1CN(C(=O)c1ccncc1)CC2	> 25 µM	> 25 µM	> 24 µM	3.56 µM
CCCCNc1nc(N)nc2c1CN(C(=O)c1cscn1)CC2	1.2 µM	0.5 µM	> 24 µM	0.17 µM
CCOCc1nc2c(N)nc3ccccc3c2n1CC(C)(C)O	0.1 µM	0.3 µM	–	–
CCCCNc1nc(N)nc2c1CN(Cc1ccc(-c3ccccc3)cc1)CC2	14 µM	0.5 µM	> 24 µM	4.49 µM
CCCCNc1nc(N)nc2c1CN(C(=O)c1cc(C)on1)CC2	0.8 µM	0.4 µM	> 24 µM	0.22 µM
CCCCNc1nc(N)nc2c1CN(Cc1ccco1)CC2	3.7 µM	0.08 µM	> 24 µM	0.07 µM
CCCCNc1nc(N)nc2c1CCN(C(C)=O)C2	5.8 µM	0.4 µM	> 24 µM	–
CCCCNc1nc(N)nc2c1CN(Cc1cccc(Cl)c1Cl)CC2	1.5 µM	0.18 µM	> 24 µM	0.25 µM
CCCCNc1nc(N)nc2c1CN(Cc1cc(F)cc(F)c1)CC2	3.5 µM	0.23 µM	> 24 µM	0.53 µM
CCCCNc1nc(N)nc2c1CN(C)CC2	9.6 µM	0.03 µM	> 24 µM	–
CCCCNc1nc(N)nc2c1CN(Cc1ccccn1)CC2	3.3 µM	0.07 µM	> 24 µM	0.14 µM
CCCCNc1nc(N)nc2c1CCN(S(C)(=O)=O)C2	20 µM	0.8 µM	> 24 µM	–
CCCCNc1nc(N)nc2c1CN(Cc1ccccc1)CC2	1.6 µM	0.06 µM	> 24 µM	–
CCCCNc1nc(N)nc2c1CCN(Cc1ccccc1)C2	11 µM	0.4 µM	> 24 µM	–
CCCCNc1nc(N)nc2c1CCN(C)C2	10 µM	0.2 µM	> 24 µM	–
